Data on four molecules can be found in patent publication US10526343B2, “Heterocyclic systems and pharmaceutical applications thereof” (University of Sharjah, priority 2018, dated 2020).

Holding throughout (type): cell-based
Assay [1] has as its system Staphylococcus aureus (ATCC 25923). As to the kind of experiment: Cell viability assay (resazurin) screening for antibacterial activity. Further details: key: Positive: A positive result indicates antibacterial activity expressed as growth inhibition; Negative: a negative result indicates no antibacterial activity expressed as bacterial growth at the tested concentration. The conditions noted are these: single high concentration of 1 mg/mL. For orientation: Resazurin is reduced to fluorescent resorufin, in cell work by metabolically active cells.

Assay [2] has as its system Enterococcus faecalis (ATCC 29212). The description is as above. Further details: key: Positive: A positive result indicates antibacterial activity expressed as growth inhibition; Negative: a negative result indicates no antibacterial activity expressed as bacterial growth at the tested concentration. The conditions noted are these: single high concentration of 1 mg/mL.
Assay [3] deals with Bacillus subtilis (environmental isolate). The description is as above. The settings on record: single high concentration of 1 mg/mL. Further details: key: Positive: A positive result indicates antibacterial activity expressed as growth inhibition; Negative: a negative result indicates no antibacterial activity expressed as bacterial growth at the tested concentration.
Assay [4] deals with Escherichia coli (ATCC 25922). Described as above. Further details: key: Positive: A positive result indicates antibacterial activity expressed as growth inhibition; Negative: a negative result indicates no antibacterial activity expressed as bacterial growth at the tested concentration. The conditions noted are these: single high concentration of 1 mg/mL.
In assay [5] the test system is Pseudomonas aeruginosa (ATCC 27853). The description is as above. Further details: key: Positive: A positive result indicates antibacterial activity expressed as growth inhibition; Negative: a negative result indicates no antibacterial activity expressed as bacterial growth at the tested concentration. The settings on record: single high concentration of 1 mg/mL.
A further assay relates to S. aureus (ATCC 25923). As to the kind of experiment: MIC by broth microdilution. The settings on record: Staphylococcus aureus, ATCC25923. Here is the method: (§1) Bacteria of the genus Staphylococcus were selected for MIC investigation due to its clinical importance. Compounds showing activity against S. aureus (ATCC 25923) were tested against 10 multidrug-resistant strains of Staphylococcus species, including: clinical isolates methicillin-resistant Staphylococcus aureus (MRSA) strains MRSA-1, MRSA-2, and MRSA-3, and environmental isolates S. saprophyticus (strains UDH-1, UDH-2, UDH-3 and UDH-4), S. haemolyticus (strains UDH-6 and UDH-7), and S. epidermidis strain UDH-5.
(§2) A broth microdilution method was used to measure MIC according to the Clinical and Laboratory Standards Institute guidelines. Two-fold serial dilutions of the test compound (8 concentrations ranged between 100-0.78 μg/mL) were tested. Two reference antibiotics were used as quality controls (ciprofloxacin and amikacin). In each experiment, solvent (DMSO) was used as a negative control, un-treated control (composing of bacteria in Mueller-Hinton broth) was used as a growth control, blank (culture media alone) was used as sterility control. The 96-well microplate with the test compounds was incubated for 20 hours at 37° C. Turbidity in wells indicated bacterial growth. […] For the definite determination of MIC, CellTiter-Blue® Cell Viability Assay (Promega, USA) was used (as above). The MIC was defined as the lowest compound concentration that prevented the color change of the Cell Viability solution (absence of bacterial growth; thus, suspension remained blue in color). For the definite determination of MIC, CellTiter-Blue® Cell Viability Assay (Promega, USA) was used (as above). To each well of the 96-well microplate, 20 μL of the Cell Viability Assay solution was added to the overnight (20 hours culture) and incubated at 37° C. for 4 hours. After the end of the incubation, pink and blue colors were used to differentiate viable from dead bacterial suspensions, respectively. The MIC was defined as the lowest compound concentration that prevented the color change.
(Broth dilution looks for growth in wells or tubes with falling amounts of substance.)

The test system of assay [6] is MRSA-1 (clinical isolate, methicillin-resistant Staphylococcus aureus). As to the kind of experiment: MIC by broth microdilution. The conditions noted are these: Staphylococcus aureus, MRSA; clinical isolate. Here is the method:
(§3) Bacteria of the genus Staphylococcus were selected for MIC investigation due to its clinical importance.
as §2, with “Two reference antibiotics were used as quality controls (ciprofloxacin and amikacin).” left out

The subject of assay [7] is MRSA-2 (clinical isolate, methicillin-resistant Staphylococcus aureus). As to the kind of experiment: MIC by broth microdilution. The method, then:
as §3
as §2, with “Two reference antibiotics were used as quality controls (ciprofloxacin and amikacin).” left out

Assay [8] relates to MRSA-3 (clinical isolate, methicillin-resistant Staphylococcus aureus). As to the kind of experiment: MIC by broth microdilution. Here is the method: as §3
as §2, with “Two reference antibiotics were used as quality controls (ciprofloxacin and amikacin).” left out

For assay [9], the system named is UDH-1 (environmental isolate, S. saprophyticus). As to the kind of experiment: MIC by broth microdilution. The settings on record: for MIC: Staphylococcus saprophyticus, environmental isolate. The method, then: as §1
(§4) All these strains were resistant to at least three antibiotics from different classes, as confirmed by a disk diffusion assay.
as §2

Assay [10] relates to UDH-2 (environmental isolate, S. saprophyticus). As to the kind of experiment: MIC by broth microdilution. The settings on record: Staphylococcus saprophyticus. The method, then:
as §1, §4, §2

Assay [11] concerns UDH-3 (environmental isolate, S. saprophyticus). The assay can be described thus: MIC by broth microdilution. The settings on record: Staphylococcus saprophyticus; environmental isolate. The method, then:
as §1, §4, §2

Assay [12] concerns UDH-4 (environmental isolate, S. saprophyticus). As to the kind of experiment: MIC by broth microdilution. The settings on record: Staphylococcus saprophyticus. The method, then: as §1, §4, §2
Assay [13] concerns UDH-5 (environmental isolate, S. epidermidis). The assay can be described thus: MIC by broth microdilution. The conditions noted are these: Staphylococcus epidermidis. Here is the method:
as §1, §4, §2

For assay [14], the system named is UDH-6 (environmental isolate, S. haemolyticus). The assay can be described thus: MIC by broth microdilution. The conditions noted are these: Staphylococcus haemolyticus; environmental isolate. The method, then:
as §1, §4, §2

Assay [15] deals with UDH-7 (environmental isolate, S. haemolyticus). The assay can be described thus: MIC by broth microdilution. The conditions noted are these: Staphylococcus haemolyticus; environmental isolate. The method, then:
as §1, §4, §2

SMILES strings stand for the structures.

The term MIC denotes the least concentration at which growth counts as inhibited.

As to `CCOC(=O)c1sc2n(c(NC(C)(C)C)c3[n+]2C(CC(=O)OC)COc2c-3cc3c4c2CCCN4CCC3)c1-c1ccccc1` (centres unmarked) [Compound 1r], the “antibacterial activity, Staphylococcus aureus” value in assay [1] is on record as “Positive”. Also, the “antibacterial activity, Enterococcus faecalis” value in [2] is listed as “Positive”. The “antibacterial activity, Bacillus subtilis” value in assay [3] is on record as “Positive”. Moreover, the “antibacterial activity, Escherichia coli” value in assay [4] is listed as “Negative”. Further, in [5], the “antibacterial activity, Pseudomonas aeruginosa” value is given as “Negative”. Besides, the MIC against S. aureus (ATCC 25923) worked out at 12.5 µg/mL; in assay [6] it was 12.5 µg/mL; in [7] it was 12.5 µg/mL; in assay [8], 12.5 µg/mL; in [9], 12.5 µg/mL; in [10], 25 µg/mL. Moreover, the MIC in [11] worked out at 12.5 µg/mL; in assay [12], 25 µg/mL; in assay [13], 6.25 µg/mL; in assay [14], 50 µg/mL; in assay [15] it was 50 µg/mL.

For the molecule `COC(=O)CC1COc2c(cc3c4c2CCCN4CCC3)-c2c(NC(C)(C)C)n3c(-c4ccc(Br)cc4)csc3[n+]21` (centres unmarked) [Compound 1q], in assay [1], the “antibacterial activity, Staphylococcus aureus” value is on record as “Positive”. Further, the “antibacterial activity, Enterococcus faecalis” value in assay [2] was “Positive”. Moreover, in assay [3], the “antibacterial activity, Bacillus subtilis” value is “Positive”. The “antibacterial activity, Escherichia coli” value in assay [4] was “Negative”. Besides, the “antibacterial activity, Pseudomonas aeruginosa” value in assay [5] is “Negative”. Besides, the MIC is 3.12 µg/mL in the assay on S. aureus (ATCC 25923); 6.25 µg/mL in assay [6]; 6.25 µg/mL in [7]; 6.25 µg/mL in assay [8]; 6.25 µg/mL in assay [9]; 6.25 µg/mL in assay [10]. The MIC in [11] was 12.5 µg/mL; in [12] it was 3.12 µg/mL; in assay [13], 3.12 µg/mL; in [14], 12.5 µg/mL; in assay [15], 12.5 µg/mL. Also, the “times lower than MIC of ciprofloxacin” value in assay [9] (UDH-1) is “approximately 10 times”.

As for `COC(=O)CC1COc2c(cc3c4c2CCCN4CCC3)-c2c(N)n3c(-c4ccc(F)cc4)c(C)sc3[n+]21` (centres unmarked) [Compound 2b], in assay [1], the “antibacterial activity, Staphylococcus aureus” value was “Positive”. Besides, in [2], the “antibacterial activity, Enterococcus faecalis” value was “Positive”. The “antibacterial activity, Bacillus subtilis” value in [3] was “Positive”. The “antibacterial activity, Escherichia coli” value in [4] is listed as “Negative”. Moreover, the “antibacterial activity, Pseudomonas aeruginosa” value in assay [5] is given as “Negative”. Moreover, the MIC (in the assay on S. aureus (ATCC 25923); in assay [6]; in [7]; in assay [8]; in assay [9]; in assay [10]) was 12.5 µg/mL each time. For the same molecule, the minimum inhibitory concentration (MIC) in assay [11] was 25 µg/mL; in assay [12] it was 12.5 µg/mL; in [13], 6.25 µg/mL; in [14], 25 µg/mL; in assay [15] it was 25 µg/mL.

On to `COC(=O)CC1COc2c(cc3c4c2CCCN4CCC3)-c2c(NC(C)(C)C)n3c4ccc(Br)cc4sc3[n+]21` (centres unmarked) [Compound 1v], for which, in assay [1], the “antibacterial activity, Staphylococcus aureus” value was “Positive”. The “antibacterial activity, Enterococcus faecalis” value in [2] is recorded as “Positive”. Besides, the “antibacterial activity, Bacillus subtilis” value in assay [3] was “Positive”. Further, the “antibacterial activity, Escherichia coli” value in assay [4] is reported as “Negative”. For the same molecule, the “antibacterial activity, Pseudomonas aeruginosa” value in assay [5] is listed as “Negative”. Moreover, the MIC was 12.5 µg/mL in the assay with S. aureus (ATCC 25923); 12.5 µg/mL in assay [6]; 12.5 µg/mL in [7]; 12.5 µg/mL in [8]; 12.5 µg/mL in [9]; 25 µg/mL in assay [10]. Further, the MIC in assay [11] was determined as 12.5 µg/mL; in assay [12], 25 µg/mL; in assay [13], 6.25 µg/mL; in assay [14], 50 µg/mL; in assay [15], 50 µg/mL.
